Test systems include HT29 colon; SNB-75 CNS; OVCAR-8 ovarian; CAKI-1 renal; SF-539 CNS; SW-620 colon; NCI-H460 lung; TK-10 renal; M14 melanoma; A498 renal; MDA-MB-435; 786-0 renal; IGROV1 ovarian; RPMI-8226 leukemia.
Assay in all cases: NCI-60 cell line screen, 48 h

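Cultured in 96-well plates, cells were exposed to test compound for 48 hours across five concentrations. TGI: concentration producing complete growth inhibition.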 Bounds are passed on as bounds.

For `NC(N)=NS(=O)(=O)c1ccc(NCc2cccc3c(=O)c4ccc(Cl)cc4oc23)cc1`, the TGI with HT29 colon is above 14.6 µM; in the test with SNB-75 CNS, 8.64 µM; in the test on OVCAR-8 ovarian it was above 13.7 µM; in the test on CAKI-1 renal it was above 15 µM; in the test on SF-539 CNS, above 13.1 µM; with SW-620 colon it was above 16.8 µM. For the same compound, the TGI with NCI-H460 lung is 7.3 µM; with TK-10 renal, above 14.5 µM; in the test with M14 melanoma, above 16.3 µM; in the test on A498 renal, above 15.3 µM; with MDA-MB-435, above 25 µM; with 786-0 renal, above 12.9 µM. In addition, the TGI with IGROV1 ovarian was above 11 µM; in the test with RPMI-8226 leukemia, above 25 µM.

For the origin of these results see PubChem BioAssay (NCI).
